Measurements from ChEMBL document CHEMBL1144396 (J Med Chem, 2005).

Target: T1, Equilibrative nucleoside transporter 1 (Homo sapiens, UniProt Q99808)
T1 sequence (Q99808 whole entry): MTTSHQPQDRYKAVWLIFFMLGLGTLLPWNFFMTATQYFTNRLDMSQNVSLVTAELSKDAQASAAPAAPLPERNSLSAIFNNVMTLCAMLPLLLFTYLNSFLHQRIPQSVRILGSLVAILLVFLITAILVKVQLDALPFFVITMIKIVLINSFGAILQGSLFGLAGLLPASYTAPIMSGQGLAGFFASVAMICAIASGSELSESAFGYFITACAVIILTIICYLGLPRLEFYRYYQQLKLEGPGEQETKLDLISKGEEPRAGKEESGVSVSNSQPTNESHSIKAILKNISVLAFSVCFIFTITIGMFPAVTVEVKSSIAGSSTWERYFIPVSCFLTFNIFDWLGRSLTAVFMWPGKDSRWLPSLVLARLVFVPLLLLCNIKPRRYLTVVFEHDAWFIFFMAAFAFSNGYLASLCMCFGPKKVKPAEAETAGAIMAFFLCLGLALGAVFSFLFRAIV
Assay: Inhibition of [3H]NBTI binding to equilibrative nucleoside transport protein 1 (ENT1) in human erythrocyte membranes
Type: cell membranes

OC[C@H]1OC(n2c(NC3CCCCC3)nc3c(SCc4ccccc4)ncnc32)[C@H](O)[C@@H]1O (stereo partly drawn)
Ki: 0.94 nM

CNc1nc2c(SCc3ccccc3)ncnc2n1C1O[C@H](CO)[C@@H](O)[C@H]1O (stereo partly drawn)
Ki: 28 nM

O=[N+]([O-])c1ccc(CSc2ncnc3c2nc(N2CCCC2)n3Cc2ccccc2)cc1
Ki: 1520 nM

OC[C@H]1O[C@@H](n2cnc3c(NC4CCCC4)ncnc32)[C@H](O)[C@@H]1O [N6-CYCLOPENTYLADENOSINE]
Ki: 1100 nM

CCCCNc1nc2c(SCc3ccccc3)ncnc2n1C1O[C@H](CO)[C@@H](O)[C@H]1O (stereo partly drawn)
Ki: 5.4 nM

OC[C@H]1OC(n2c(NC3CCCC3)nc3c(SCc4ccccc4)ncnc32)[C@H](O)[C@@H]1O (stereo partly drawn)
Ki: 0.64 nM

CCNc1nc2c(SCc3ccccc3)ncnc2n1C1O[C@H](CO)[C@@H](O)[C@H]1O (stereo partly drawn)
Ki: 9.5 nM

OC[C@H]1OC(n2c(NC3CC3)nc3c(SCc4ccccc4)ncnc32)[C@H](O)[C@@H]1O (stereo partly drawn)
Ki: 3 nM

CCCNc1nc2c(SCc3ccccc3)ncnc2n1C1O[C@H](CO)[C@@H](O)[C@H]1O (stereo partly drawn)
Ki: 5.3 nM

OC[C@H]1O[C@@H](n2cnc3c(SCc4ccccc4)ncnc32)[C@H](O)[C@@H]1O [6-BENZYLTHIOINOSINE]
Ki: 53 nM

CCCCCCNc1nc2c(SCc3ccccc3)ncnc2n1C1O[C@H](CO)[C@@H](O)[C@H]1O (stereo partly drawn)
Ki: 3.7 nM

CCC(C)CNc1nc2c(SCc3ccccc3)ncnc2n1C1O[C@H](CO)[C@@H](O)[C@H]1O (stereo partly drawn)
Ki: 3.6 nM

OC[C@H]1OC(n2c(N3CCCC3)nc3c(SCc4ccccc4)ncnc32)[C@H](O)[C@@H]1O (stereo partly drawn)
Ki: 410 nM

OC[C@H]1OC(n2c(N3CCCCC3)nc3c(SCc4ccccc4)ncnc32)[C@H](O)[C@@H]1O (stereo partly drawn)
Ki: 744 nM

O=[N+]([O-])c1ccc(CSc2ncnc3c2nc(N2CCOCC2)n3Cc2ccccc2)cc1
Ki: 51 nM

CCCCCNc1nc2c(SCc3ccccc3)ncnc2n1C1O[C@H](CO)[C@@H](O)[C@H]1O (stereo partly drawn)
Ki: 2.3 nM

OC[C@H]1OC(n2c(N3CCOCC3)nc3c(SCc4ccccc4)ncnc32)[C@H](O)[C@@H]1O (stereo partly drawn)
Inhibition: 33%

CCCNc1nc2c(NC3CCCC3)ncnc2n1[C@@H]1O[C@H](CO)[C@@H](O)[C@H]1O
Ki: 97 nM
